Patent publication US20260166182A1, “CYANINE-BASED FLUOROPHORES” (The General Hospital Corporation, priority 2022, published 2026)
Entries after “also recorded” stand apart in the source; their conditions may differ.

Legend:
[1] = tested on: immune cells from bone marrow and tumor tissues; experiment: Flow cytometry analysis of fluorophore-targeted immune cells from bone marrow and tumor; format: in vivo, mouse; conditions: 48 h post-injection
Procedure: Flow cytometry analysis: Bone marrow tissue was mechanically dissociated and digested with collagenase D (175 unit/mL, Roche) and DNase I (100 unit/mL, Roche) followed by EDTA (2 mM, Invitrogen). Erythrocytes were removed using RBC Lysis Buffer (Invitrogen). Tumor tissue was mechanically dissociated and digested with collagenase I (175 unit/mL, Thermo-fisher), Collagenase IV (250 unit/mL, Thermo-fisher, 1700019), and DNase I (100 unit/mL) followed by EDTA ([…]). Immune cells were isolated from cell suspensions of the bone marrow or tumor tissue using Ficoll® Paque Plus (GE Healthcare). Isolated cells were stained with anti-mouse F4/80 (BM8, Biolegend, 123131), anti-mouse Ly-6G (1A8, Biolegend, 127639), anti-mouse Ly-6C(HK1.4, Biolegend, 128011), anti-mouse CD11c (N418, Biolegend, 117313), anti-mouse CD103 (2E7, Biolegend, 121425), anti-mouse I-A/I-E (M5/114.15.2 Biolegend, 107611), anti-mouse/human CD11b (M1/70, Biolegend, 101254) and anti-mouse CD45 antibodies (30-F11, Biolegend, 103105) conjugated to fluorophores. Isolated cells were stained with Live/dead®-Aqua (Life Technologies) to distinguish live cells. Stained cells were fixed using 1% paraformaldehyde prior to analysis. Data acquisition was performed on a Fortessa cytometer (BD) followed by analysis on FlowJo software (Tree Star).

[2] = tested on: lung carcinoma (LLC cell line); experiment: NIR-II fluorescence imaging of subcutaneous LLC tumor-bearing C57BL/6 mice; format: in vivo, mouse; conditions: for tumor targeting / tumor signal: intravenous, NIR-II imaging until 48 h post-injection
Source text: General NIR-II fluorescence imaging: A 640×512-pixel InGaAs camera (Ninox640, Raptor Photonics) and macro zoom lens (0-10×; Navitar Zoom 7000 with SWIR coating) along with 900, 1070, 1100, and 1200 nm long-pass (LP) filters from either Thorlab or Edmund optics were used to collect the NIR-II signal. InGaAs camera played a role as an open-air imaging system along with the support of the FLARE system. An 808 nm fiber-coupled diode laser ([…] at the sample) was used as an excitation source. Data acquisition was done using in-house developed software. […] Mice were imaged with intact skin using InGaAs camera. At least 3 mice were analyzed for each sample. Tumor-bearing mouse models: Animals were housed in an AAALAC-certified facility and were studied under the protocols approved by the MGH IACUC (2016N000136). Mice were maintained under anesthesia with isoflurane and oxygen during the experiment. To establish the various tumor-bearing mouse models including lung carcinoma, pancreatic ductal adenocarcinoma (PDAC), and triple negative breast adenocarcinoma, eight-week-old C57BL/6 mice (Taconic Farms, Germantown, NY) were subcutaneously injected with 2×10^5 LLC, Pan02, and E0771 cells suspended in DMEM/Matrigel (100 μL, 50 v/v %) in the flank region, respectively. Female C57BL/6 mice were used for the breast cancer (E0771) model, otherwise male mice were used. […] Statistical analysis: The fluorescence and background intensities of a region of interest over each tissue were quantified using customized imaging software and ImageJ v1.48 (National Institutes of Health, Bethesda, MD). The signal-to-background ratio (SBR) was calculated as SBR=fluorescence/background, where background was the fluorescence intensity of muscle. Data were reported as mean±s.e.m. with a minimum of three biological replicates. Student's t-test statistical analysis was performed to evaluate the significance of the experimental data. The differences among groups were determined using one-way ANOVA analysis to assess the statistical differences among more than two groups. […] The data was indicated with *p<0.05, ** p<0.01, *** p<0.001, and **** p<0.0001.

LLC tumor = experiment: Tumor histopathology with NIR fluorescence microscopy of resected LLC tumors; format: in vivo, mouse; conditions: histological NIR images
Procedure: Tumor histopathology evaluation: […] After rinsing with PBS, the fixed sections were counterstained with nuclear fast red, dehydrated by ethanol, transferred into xylene, and finally mounted according to the standard protocol. To determine the tissue distribution of the NIR fluorophore, the dissected tissues were embedded in Tissue-Tek optimum cutting temperature compound (Sakura Finetek, Torrance, CA) without a pre-fixation step. The tissue block was frozen at −80° C. Frozen sections were cut at a thickness of 10 or 50 μm by a cryostat (Leica, Germany). Then, the tissue sections were stained with hematoxylin and eosin (H&E). The BioTek Cytation 5 (Winooski, VT) was used for pathological fluorescence imaging and observation.

[3] = tested on: serum proteins, mostly albumin; conditions: cited from earlier work
[4] = tested on: serum proteins, mostly albumin; experiment: Serum protein binding kinetics (size exclusion column); format: in vitro ADME; conditions: until 24 h incubation
Procedure: FIG. 15 Reaction kinetics of SH1, ICG, and IR-780 to serum proteins, mostly albumin. 50 nmol of each dye was mixed with 1 ml of FBS/PBS (pH 7.4) 50/50 v/v %, incubated at 37° C., and analyzed using a BioResolve size exclusion column (200 Å, 2.5 μm, 7.8×300 mm). The binding percentage was calculated by dividing by absorbance of bound dye at 24 h assuming the dyes can bind in maximum capacity in the protein at 24 h.

[5] = Photostability under xenon lamp irradiation; format: physicochemical; conditions: ethanol, xenon lamp 150 W, end of 2 h
Procedure: Optical Study, Photostability, Physicochemical Properties, and DFT Calculation: 1 mM stock solution in DMSO of the synthesized fluorophores was prepared before starting any spectral measurement. Optical properties for the synthesized fluorophores were measured in four different solvents (EtOH, DMSO, HEPES, and PBS). Absorbance spectra were measured in a Varian Cary 50 absorbance spectrophotometer (190-1100 nm). Fluorescence emission and photostability were measured and emission spectra were recorded on a Shimadzu RF-5301PC spectrofluorometer. Physicochemical properties (Log D, molecular mass, TPSA, H bond D/A, polarizability, molecular volume, and rotatable bonds) were predicted by ChemAxon (JChem plugin). Theoretical calculations of frontier molecular orbitals (FMOs) for the optimized structures of selected fluorophores were calculated based on DFT calculations at the B3LYP/6-311G(d,p) level.
In consideration of theranostic (therapeutics and diagnostic) applications, NIR cyanine fluorophores are synthesized for fluorescence imaging, photodynamic therapy (PDT), photothermal therapy (PTT), optoacoustic imaging, and cancer immunotherapy. One of the approaches before using these fluorophores in those applications is to study their biodistribution and clearance pattern in vivo. […] The power density of 150 W is much higher than the required power for fluorescence imaging, considering that the time it takes for a fluorophore to clear from the background and accumulate in sufficient quantities in the targeted tissues is unknown. […] By considering this, an aliquot of the stock solution (1 mM in DMSO) was diluted in ethanol, and the fluorescence intensity was measured at the excitation wavelength same as their absorption maxima (nm). Photodegradation rates were measured every 20 min intervals for the selected fluorophores based on the % reduced fluorescence intensity starting from 100%. […] The data were collected in every 20 min intervals under continuous irradiation with a xenon lamp at 150 W for 2 h and presented based on the % reduced fluorescence intensity starting from 100%. […]

[6] = cited from earlier work

| nonspecific background signal in biodistribution ([2]; 4 h post-injection) | clearance ([2]; mouse, in vivo) | photodegradation (% reduced fluorescence intensity) [5] | Structure (SMILES) | positively stained cells across distinct immune cell populations ([1]; bone marrow) | positively stained cells across distinct immune cell populations ([1]; tumor) | circulation in the blood stream ([2]; 48 h post-injection) | tumor signal intensity after skin removal ([2]; 48 h post-injection) | tumor targeting / tumor signal [2] | fluorescence signal location in resected tumor (LLC tumor) | time to bind half of the maximum [3] | reaction with serum proteins [4] | reference quantum yield ΦICG [6] |
| --- | --- | --- | --- | --- | --- | --- | --- | --- | --- | --- | --- | --- |
| High nonspecific background signal | – | – | CCCN1/C(=C/C=C2\CCCC(/C=C/C3=[N+](CCC)c4ccccc4C3(C)C)=C2Cl)C(C)(C)c2ccccc21.[I-] [IR-780] | < 22% | < 7% | strong signals in the blood plasma; also recorded: circulating in the blood stream | significantly decreased after skin removal | accumulating in tumors at early time points around 4 h post-injection | only present in the peritumoral region | ~2 min | – | – |
| – | fast hepatobiliary clearance | 41% | CC1(C)C(/C=C/C=C/C=C/C=C2\N(CCCCS(=O)(=O)O)c3ccc4ccccc4c3C2(C)C)=[N+](CCCCS(=O)(=O)[O-])c2ccc3ccccc3c21 [ICG, indocyanine green, reference compound] | < 8% | < 14% | – | – | did not show good tumor targeting | barely present in the tumor | – | did not show any reactions with proteins until 24 h incubation | 0.043 |
